The text below walks through data of patent US20210220376A1, “ADDICTION TREATMENT OF AN ALCOHOL-CONSUMING PATIENT POPULATION” (Amygdala Neurosciences, Inc., priority 2018, published 2021).

Series [1] in a line: Phase 1 study of compound (2) with ethanol: pharmacokinetics of compound (1) and breath alcohol. Particulars: after repeated EtOH administration. From the text: Plasma concentrations of compound (1) and BrAC were summarized and listed by treatment, subject and timepoint. Pharmacokinetic parameters derived for compound (1) were also summarized and listed by treatment and subject. Pharmacokinetic parameters were estimated using a non-compartmental approach with a log-linear terminal phase assumption. The trapezoidal rule was used to estimate the area under the curve (linear trapezoidal linear interpolation) and the terminal phase will be estimated by maximizing the coefficient of determination estimated from the log-linear regression model. However, AUC0-∞, AUClast/∞, λz and t1/2 parameters were to be estimated for individual concentration-time profiles only when the terminal log-linear phase could be reliably characterized.
Proportionality analysis was done using a power model. The power model was defined as: […]
A linear model with ln-transformed dose as a continuous effect was fitted. A point estimate and a 90% CI was derived for the slope (β). The parameter could be considered to be dose proportional if the 90% confidence interval of the slope β was within [1+ln(0.8)/ln(r), 1+ln(1.25)/ln(r)], where r=the highest dose studied/the lowest dose (Smith et al., “Confidence interval criteria for assessment of dose proportionality.” Pharm Res. 17 (10):1278-83 (2000)).

For series [2], the target named is T1, hMAO-B (Homo sapiens, UniProt P27338).
T1 sequence (P27338 1-520): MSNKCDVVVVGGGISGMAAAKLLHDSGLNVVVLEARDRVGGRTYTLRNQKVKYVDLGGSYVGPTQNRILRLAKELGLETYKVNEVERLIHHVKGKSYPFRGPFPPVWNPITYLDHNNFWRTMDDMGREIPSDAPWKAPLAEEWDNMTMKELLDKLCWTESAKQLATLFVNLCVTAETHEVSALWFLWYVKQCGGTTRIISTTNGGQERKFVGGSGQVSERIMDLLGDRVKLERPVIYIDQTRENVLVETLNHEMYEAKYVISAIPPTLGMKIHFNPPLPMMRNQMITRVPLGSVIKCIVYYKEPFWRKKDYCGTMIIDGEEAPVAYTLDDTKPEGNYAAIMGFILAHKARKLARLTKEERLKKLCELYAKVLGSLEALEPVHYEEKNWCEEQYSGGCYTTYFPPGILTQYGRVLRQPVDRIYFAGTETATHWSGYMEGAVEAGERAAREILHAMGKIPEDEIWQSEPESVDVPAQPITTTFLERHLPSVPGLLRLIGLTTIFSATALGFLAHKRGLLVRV
The settings on record: read-out: IC50 hMAO-B; cited from earlier work.

Series [3] addresses T2, human ALDH-2 enzyme (Homo sapiens, UniProt P05091).
T2 sequence (P05091 18-517): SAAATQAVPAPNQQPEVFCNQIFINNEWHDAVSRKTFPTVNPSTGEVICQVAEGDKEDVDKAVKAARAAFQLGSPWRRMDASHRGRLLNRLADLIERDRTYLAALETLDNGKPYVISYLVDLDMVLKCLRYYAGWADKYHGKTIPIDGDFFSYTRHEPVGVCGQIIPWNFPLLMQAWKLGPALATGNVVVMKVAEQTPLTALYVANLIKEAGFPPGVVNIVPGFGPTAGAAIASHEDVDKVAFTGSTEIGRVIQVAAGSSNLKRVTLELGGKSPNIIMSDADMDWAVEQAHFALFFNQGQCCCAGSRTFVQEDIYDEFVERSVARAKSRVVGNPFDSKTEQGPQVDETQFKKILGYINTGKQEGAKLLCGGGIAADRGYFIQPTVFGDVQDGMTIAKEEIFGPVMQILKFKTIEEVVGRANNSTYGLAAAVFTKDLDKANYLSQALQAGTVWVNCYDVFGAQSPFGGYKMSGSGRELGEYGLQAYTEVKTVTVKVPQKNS
The settings on record: read-out: IC50 ALDH-2; cited from earlier work.

The target in series [4] is T3, hMAO-A (Homo sapiens, UniProt P21397).
T3 sequence (P21397 1-527): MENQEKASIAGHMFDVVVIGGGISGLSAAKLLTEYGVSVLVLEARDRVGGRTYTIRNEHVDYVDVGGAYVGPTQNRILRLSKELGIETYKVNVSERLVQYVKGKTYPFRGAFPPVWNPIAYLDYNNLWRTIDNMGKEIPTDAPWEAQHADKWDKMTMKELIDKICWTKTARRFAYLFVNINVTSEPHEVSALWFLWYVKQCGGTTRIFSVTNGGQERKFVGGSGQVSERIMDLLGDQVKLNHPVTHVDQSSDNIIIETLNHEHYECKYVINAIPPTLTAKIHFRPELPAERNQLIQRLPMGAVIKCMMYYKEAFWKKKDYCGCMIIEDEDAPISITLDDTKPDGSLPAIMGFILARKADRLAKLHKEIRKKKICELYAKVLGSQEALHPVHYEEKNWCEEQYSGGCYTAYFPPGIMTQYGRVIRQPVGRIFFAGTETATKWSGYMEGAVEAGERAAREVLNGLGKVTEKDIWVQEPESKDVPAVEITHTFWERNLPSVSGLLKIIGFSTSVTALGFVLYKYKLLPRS
Particulars: read-out: IC50 hMAO-A; cited from earlier work.

Series [5] concerns healthy male alcohol drinkers. As to the kind of experiment: Phase 1 study of compound (2) with ethanol: pharmacodynamics (mDEQ-5). The class given is in vivo, human. From the text:
The exploratory pharmacodynamic endpoints included maximum effect (Emax), maximum change from baseline (CFBmax), time to Emax (TEmax), and time-averaged area under the effect curve (TA_AUE), as applicable, derived from Modified 5-item Drug Effects Questionnaire (mDEQ-5) scores.
mDEQ-5 scores were summarized by timepoint and treatment using descriptive statistics. Derived endpoints (Emax, CFBmax, TEmax, TA_AUE, as applicable) were summarized by treatment using descriptive statistics. For each mDEQ-5-derived endpoint, an analysis of variance (ANOVA) was conducted to compare each of active doses to placebo with dose group as a factor. Results were presented in terms of LSMEANS, treatment differences in LSMEANS, 95% CI and p-values.
Ethanol consumption and number of EtOH doses consumed (i.e., number of drinks) during the repeat EtOH administration sessions were summarized using descriptive statistics.

By IC50 is commonly meant the midpoint of a concentration-inhibition curve. In the case of `O=C(NCc1ccc(-c2ccn(COP(=O)(O)O)c(=O)c2)cc1)c1c(Cl)cccc1Cl` [Compound (2), phosphoric acid mono-(4-{4-[(2,6-dichloro-benzoylamino)-methyl]-phenyl}-2-oxo-2H-pyridin-1-ylmethyl) ester], the “peak breath alcohol concentrations compared with placebo” value in series [1] is recorded as “slightly higher”. Also, the IC50 in series [2] is > 130 µM; in series [3] it was > 10 µM; in series [4] it was > 130 µM. Also, in series [5] (25-600 mg), the “dose response on pharmacodynamic measures” value was “did not show a consistent dose response”. In series [5] (all dose levels vs placebo), the “peak VAS scores: feeling any alcohol effects, feeling drunk, liking the effects of alcohol” value is recorded as “Peak scores for placebo were higher than scores for all compound (2) dose levels”.
